The record followed here is ChEMBL document CHEMBL1134634, “Rapid enantiomeric quantification of an antiviral nucleoside agent (D,L-FMAU, 2'-fluoro-5-methyl-beta,D,L-arabinofurano-syluracil) by mass spectrometry” (J Med Chem, 2001).

For this experiment, the system named is Hepatitis B virus. Nature of the experiment: Effective concentration against hepatitis B virus. It is filed as functional, organism-based.

For `Cc1cn([C@@H]2O[C@H](CO)[C@@H](O)[C@@H]2F)c(=O)[nH]c1=O` [5-METHYL-2'-FLUOROARAURACIL], the EC50 was 130 nM.

What is called EC50 is the concentration that produces a half-maximal response. Lower therefore signals higher potency in that assay.
